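The compound was tested at five concentrations on cells cultured in 96-well plates, with a 48-hour exposure period. GI50: concentration for 50% inhibition of growth. TGI: concentration producing complete growth inhibition.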
Assays:
Experiment in all cases: DTP human tumour cell line panel, 48 h
SK-MEL-5 melanoma = system: SK-MEL-5 melanoma
SR leukemia = system: SR leukemia
M14 melanoma = system: M14 melanoma
RPMI-8226 leukemia = system: RPMI-8226 leukemia
HCT-116 colon = system: HCT-116 colon
ACHN renal = system: ACHN renal
IGROV1 ovarian = system: IGROV1 ovarian
OVCAR-3 ovarian = system: OVCAR-3 ovarian
CAKI-1 renal = system: CAKI-1 renal
A498 renal = system: A498 renal
OVCAR-8 ovarian = system: OVCAR-8 ovarian
T-47D breast = system: T-47D breast
SK-OV-3 ovarian = system: SK-OV-3 ovarian
HCT-15 colon = system: HCT-15 colon
SF-539 CNS = system: SF-539 CNS
NCI/ADR-RES ovarian = system: NCI/ADR-RES ovarian
MCF7 breast = system: MCF7 breast
NCI-H522 lung = system: NCI-H522 lung
UO-31 renal = system: UO-31 renal
A549 NSCLC = system: A549 NSCLC
HS 578T breast = system: HS 578T breast
SF-295 CNS = system: SF-295 CNS
MDA-MB-231 breast = system: MDA-MB-231 breast
BT-549 breast = system: BT-549 breast
PC-3 prostate = system: PC-3 prostate
HT29 colon = system: HT29 colon
OVCAR-5 ovarian = system: OVCAR-5 ovarian

COc1cc(OC)cc(-c2n/c(=C\c3c(O)[nH]c4ccc(Cl)cc34)cc3c2=Nc2ccccc2-3)c1
GI50 (SK-MEL-5 melanoma): 17.7 µM | TGI (SK-MEL-5 melanoma): 62.5 µM | GI50 (SR leukemia): 2240 nM | TGI (SR leukemia): 5.59 µM | GI50 (M14 melanoma): 4.01 µM | TGI (M14 melanoma): 13.7 µM | GI50 (RPMI-8226 leukemia): 16.3 µM | TGI (RPMI-8226 leukemia): > 100 µM | GI50 (HCT-116 colon): 1900 nM | TGI (HCT-116 colon): 3.43 µM | GI50 (ACHN renal): 5.37 µM | TGI (ACHN renal): 20.7 µM | GI50 (IGROV1 ovarian): 3.46 µM | TGI (IGROV1 ovarian): 10.1 µM | GI50 (OVCAR-3 ovarian): 2460 nM | TGI (OVCAR-3 ovarian): 5.22 µM | GI50 (CAKI-1 renal): 12.9 µM | TGI (CAKI-1 renal): 30.5 µM | GI50 (A498 renal): 30.9 µM | TGI (A498 renal): > 100 µM | GI50 (OVCAR-8 ovarian): 3.51 µM | TGI (OVCAR-8 ovarian): 15.5 µM | GI50 (T-47D breast): 4.39 µM | TGI (T-47D breast): 17 µM | GI50 (SK-OV-3 ovarian): 10.2 µM | TGI (SK-OV-3 ovarian): 26 µM | GI50 (HCT-15 colon): 6.58 µM | TGI (HCT-15 colon): 27.7 µM | GI50 (SF-539 CNS): 20.4 µM | TGI (SF-539 CNS): 45.8 µM | GI50 (NCI/ADR-RES ovarian): 3.03 µM | TGI (NCI/ADR-RES ovarian): 10.8 µM | GI50 (MCF7 breast): 1820 nM | TGI (MCF7 breast): 4.66 µM | GI50 (NCI-H522 lung): 3.09 µM | TGI (NCI-H522 lung): 10.5 µM | GI50 (UO-31 renal): 12.5 µM | TGI (UO-31 renal): 29.2 µM | GI50 (A549 NSCLC): 3.21 µM | TGI (A549 NSCLC): 11.1 µM | GI50 (HS 578T breast): 16.4 µM | TGI (HS 578T breast): 62.4 µM | GI50 (SF-295 CNS): 2320 nM | TGI (SF-295 CNS): 6.11 µM | GI50 (MDA-MB-231 breast): 2840 nM | TGI (MDA-MB-231 breast): 13.4 µM | GI50 (BT-549 breast): 3 µM | TGI (BT-549 breast): 9.75 µM | GI50 (PC-3 prostate): 5.55 µM | TGI (PC-3 prostate): 28.7 µM | GI50 (HT29 colon): 2720 nM | TGI (HT29 colon): 6.22 µM | GI50 (OVCAR-5 ovarian): 20.5 µM | TGI (OVCAR-5 ovarian): 63.8 µM

Source: PubChem BioAssay (NCI)
